Eight compounds from patent US11034666B2, “Anti-inflammatory and antitumor 2-oxothiazoles and 2-oxothiophenes compounds” (Avexxin AS, priority 2013, dated 2021) can be followed below.

Structures are written as SMILES. Values joined by “and” are separate entries in the source; they are usually repeats but may differ in a detail not shown here. Identical values can stand only once.

The target of one test is T1, human GIVA cPLA2 (Homo sapiens, UniProt P47712).
T1 sequence (P47712 1-749): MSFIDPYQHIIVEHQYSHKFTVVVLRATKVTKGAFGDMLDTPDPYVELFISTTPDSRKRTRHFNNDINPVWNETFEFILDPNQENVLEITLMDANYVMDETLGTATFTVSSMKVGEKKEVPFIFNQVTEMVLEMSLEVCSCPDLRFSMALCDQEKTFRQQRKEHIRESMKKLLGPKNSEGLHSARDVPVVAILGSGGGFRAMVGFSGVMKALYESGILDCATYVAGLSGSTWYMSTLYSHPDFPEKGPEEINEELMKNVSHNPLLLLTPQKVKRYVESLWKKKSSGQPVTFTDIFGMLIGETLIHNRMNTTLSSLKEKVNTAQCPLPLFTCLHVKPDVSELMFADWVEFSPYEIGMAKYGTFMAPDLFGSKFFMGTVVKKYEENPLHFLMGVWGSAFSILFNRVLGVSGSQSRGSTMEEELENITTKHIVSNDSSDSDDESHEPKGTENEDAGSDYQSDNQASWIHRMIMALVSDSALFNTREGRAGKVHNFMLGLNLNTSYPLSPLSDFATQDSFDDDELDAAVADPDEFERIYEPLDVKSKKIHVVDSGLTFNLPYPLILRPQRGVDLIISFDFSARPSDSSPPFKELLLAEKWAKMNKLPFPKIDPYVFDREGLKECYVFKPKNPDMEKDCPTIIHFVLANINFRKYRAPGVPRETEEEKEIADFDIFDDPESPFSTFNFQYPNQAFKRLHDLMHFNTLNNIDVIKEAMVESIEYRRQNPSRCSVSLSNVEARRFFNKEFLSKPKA
Description: In vitro mixed micelle assay, GIVA cPLA2. As to conditions: Table 2; mole fraction of inhibitor in the total substrate interface for 50% inhibition. It is filed as biochemical. The protocol:
(§1) At first, the percent of inhibition for each PLA2 enzyme at 0.091 mole fraction of each inhibitor was determined. […] The XI(50) is the mole fraction of the inhibitor in the total substrate interface required to inhibit the enzyme activity by 50%. […] (ii) GVI iPLA2 substrate mixed-micelles were composed of 400 μM Triton X-100, 98.3 μM PAPC, and 1.7 μM ^14C-labeled PAPC in buffer containing 100 mM HEPES, pH 7.5, 2 mM ATP, and 4 mM DTT; (iii) GV sPLA2 substrate mixed-micelles were composed of 400 μM Triton X-100, 98.3 μM PAPC, and 1.7 μM ^14C-labeled PAPC in buffer containing 50 mMTris, pH 8.0, and 5 mM […] CaCl2.
For the compound `CCCCCCCCc1ccc(OCC(=O)c2nc(C(=O)OC)cs2)cc1` [Compound A, Methyl 2-(2-(4-octylphenoxy)acetyl)thiazole-4-carboxylate], the “GIVA cPLA2 XI(50)” value came out at 0.011 mole fraction.

Staying with this test, now noted: Tables 2 and 4.
For `CCCCCCCCc1ccc(OCC(=O)c2nc(C(=O)OC)cs2)cc1` [Compound A, Methyl 2-(2-(4-octylphenoxy)acetyl)thiazole-4-carboxylate], the “GIVA cPLA2 % Inhibition” value is over 90%.

Still in this test, the particulars now being: mixed micelle assay, comment on Table 6.
As to `CCCCCCCCCCCCOCC(=O)c1nc(CC(=O)OCC)cs1` [Compound X, Ethyl 2-(2-(2-(dodecyloxy)acetyl)thiazol-4-yl)acetate], the “inhibition of GIVA cPLA2 (in words)” value was “proved inactive”.
`O=C(COc1ccccc1)c1nccs1` [Compound D, 2-Phenoxy-1-(thiazol-2-yl)ethanone]: the “inhibition of GIVA cPLA2 (in words)” value is “did not present any interesting inhibition”.
Still for that read-out and setting: in the case of `CCCCCCCCc1ccc(OCC(=O)c2nc(CC(=O)OCC)cs2)cc1` [Compound Y, Ethyl 2-(2-(2-(4-octylphenoxy)acetyl)thiazol-4-yl)acetate] it was “dramatic loss of the activity”; in that of `O=C(COc1ccc(F)cc1)c1nccs1` [Compound C, 2-(4-Fluorophenoxy)-1-(thiazol-2-yl)ethanone], “did not present any interesting inhibition”.
As for `O=C(COc1ccc(-c2ccccc2)cc1)c1nccs1` [Compound B, 2-(Biphenyl-4-yloxy)-1-(thiazol-2-yl)ethanone], the “inhibition of GIVA cPLA2 (in words)” value is reported as “did not present any interesting inhibition”.
With `CCCCCCCCc1ccc(OCC(=O)c2nccs2)cc1` [Compound T, 2-(4-Octylphenoxy)-1-(thiazol-2-yl)ethanone], the “inhibition of GIVA cPLA2 (in words)” value is “significant inhibitory activity”.

The same test, now with this note: mixed micelles; 0.091 mole fraction of inhibitor; Table 6; read-out: GIVA cPLA2 % Inhib.
On to `CCCCCCCCCCCCOCC(=O)c1nc(CC(=O)OCC)cs1` [Compound X, Ethyl 2-(2-(2-(dodecyloxy)acetyl)thiazol-4-yl)acetate], for which the inhibition at 0.091 mole fraction was found to be 49%.
In the case of `O=C(COc1ccccc1)c1nccs1` [Compound D, 2-Phenoxy-1-(thiazol-2-yl)ethanone], the inhibition at 0.091 mole fraction turned out to be 40%.
The same measure, in the same setting: for `CCCCCCCCCCCCOCC(=O)c1nc(C(=O)OCC)cs1` [Compound W, Ethyl 2-(2-(dodecyloxy)acetyl)thiazole-4-carboxylate] the value was 48%; for `CCCCCCCCc1ccc(OCC(=O)c2nc(C(=O)OC)cs2)cc1` [Compound A, Methyl 2-(2-(4-octylphenoxy)acetyl)thiazole-4-carboxylate], over 90%; for `CCCCCCCCc1ccc(OCC(=O)c2nc(CC(=O)OCC)cs2)cc1` [Compound Y, Ethyl 2-(2-(2-(4-octylphenoxy)acetyl)thiazol-4-yl)acetate], 64%.
As for `O=C(COc1ccc(F)cc1)c1nccs1` [Compound C, 2-(4-Fluorophenoxy)-1-(thiazol-2-yl)ethanone], the inhibition at 0.091 mole fraction is 58%.
Still for that read-out and setting: in the case of `O=C(COc1ccc(-c2ccccc2)cc1)c1nccs1` [Compound B, 2-(Biphenyl-4-yloxy)-1-(thiazol-2-yl)ethanone] it was 80%; in that of `CCCCCCCCc1ccc(OCC(=O)c2nccs2)cc1` [Compound T, 2-(4-Octylphenoxy)-1-(thiazol-2-yl)ethanone], over 90%.

Staying with this test, now noted: mixed micelles; mole fraction of inhibitor for 50% inhibition; Table 6.
`CCCCCCCCc1ccc(OCC(=O)c2nc(C(=O)OC)cs2)cc1` [Compound A, Methyl 2-(2-(4-octylphenoxy)acetyl)thiazole-4-carboxylate]: the “GIVA cPLA2 XI(50)” value is 0.011 mole fraction and 0.011 ± 0.005 mole fraction.
With `CCCCCCCCc1ccc(OCC(=O)c2nccs2)cc1` [Compound T, 2-(4-Octylphenoxy)-1-(thiazol-2-yl)ethanone], the “GIVA cPLA2 XI(50)” value came out at 0.02 ± 0.007 mole fraction.

A further test addresses T2, human GVIA iPLA2 (Homo sapiens, UniProt O60733).
T2 sequence (O60733 1-806): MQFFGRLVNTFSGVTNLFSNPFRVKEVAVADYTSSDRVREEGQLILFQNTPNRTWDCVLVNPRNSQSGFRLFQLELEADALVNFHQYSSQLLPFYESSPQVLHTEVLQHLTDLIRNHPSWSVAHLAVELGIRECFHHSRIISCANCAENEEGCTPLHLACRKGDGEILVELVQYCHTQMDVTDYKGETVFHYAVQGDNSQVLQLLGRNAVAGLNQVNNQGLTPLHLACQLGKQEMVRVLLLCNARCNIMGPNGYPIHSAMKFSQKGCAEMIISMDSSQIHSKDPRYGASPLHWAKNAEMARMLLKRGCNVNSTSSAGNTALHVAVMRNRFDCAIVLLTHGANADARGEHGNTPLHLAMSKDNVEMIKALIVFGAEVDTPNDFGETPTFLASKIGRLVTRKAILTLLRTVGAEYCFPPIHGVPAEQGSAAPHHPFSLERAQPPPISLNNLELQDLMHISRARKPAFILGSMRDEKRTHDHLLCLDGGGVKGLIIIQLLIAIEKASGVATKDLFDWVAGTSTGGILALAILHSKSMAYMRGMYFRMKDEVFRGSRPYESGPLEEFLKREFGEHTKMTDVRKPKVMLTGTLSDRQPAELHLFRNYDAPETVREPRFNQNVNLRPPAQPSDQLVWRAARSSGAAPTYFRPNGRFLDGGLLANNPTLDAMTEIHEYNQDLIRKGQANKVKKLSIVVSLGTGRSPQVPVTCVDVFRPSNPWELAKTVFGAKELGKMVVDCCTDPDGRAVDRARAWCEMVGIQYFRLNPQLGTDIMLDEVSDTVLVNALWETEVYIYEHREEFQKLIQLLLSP
Description: In vitro mixed micelle assay, GVIA iPLA2. The conditions noted are these: Tables 2 and 4. The class given is biochemical. The protocol: as §1
On to `CCCCCCCCc1ccc(OCC(=O)c2nc(C(=O)OC)cs2)cc1` [Compound A, Methyl 2-(2-(4-octylphenoxy)acetyl)thiazole-4-carboxylate], for which the “GVIA iPLA2 % Inhibition” value came out at 86.4%.

The same test, now with this note: mixed micelles; 0.091 mole fraction of inhibitor; Table 6; read-out: GVIA iPLA2 % Inhib.
In the case of `CCCCCCCCCCCCOCC(=O)c1nc(CC(=O)OCC)cs1` [Compound X, Ethyl 2-(2-(2-(dodecyloxy)acetyl)thiazol-4-yl)acetate], the inhibition at 0.091 mole fraction was found to be 91%.
Consider `O=C(COc1ccccc1)c1nccs1` [Compound D, 2-Phenoxy-1-(thiazol-2-yl)ethanone], for which the inhibition at 0.091 mole fraction was determined as 13%.
Still for that read-out and setting: for `CCCCCCCCCCCCOCC(=O)c1nc(C(=O)OCC)cs1` [Compound W, Ethyl 2-(2-(dodecyloxy)acetyl)thiazole-4-carboxylate] the value was 92%; for `CCCCCCCCc1ccc(OCC(=O)c2nc(C(=O)OC)cs2)cc1` [Compound A, Methyl 2-(2-(4-octylphenoxy)acetyl)thiazole-4-carboxylate], 86%.
Regarding `CCCCCCCCc1ccc(OCC(=O)c2nc(CC(=O)OCC)cs2)cc1` [Compound Y, Ethyl 2-(2-(2-(4-octylphenoxy)acetyl)thiazol-4-yl)acetate], the inhibition at 0.091 mole fraction came out at 76%.
On the same count and under the same terms, for `O=C(COc1ccc(F)cc1)c1nccs1` [Compound C, 2-(4-Fluorophenoxy)-1-(thiazol-2-yl)ethanone] the value was 5%; for `O=C(COc1ccc(-c2ccccc2)cc1)c1nccs1` [Compound B, 2-(Biphenyl-4-yloxy)-1-(thiazol-2-yl)ethanone], 23%.
The same measure, in the same setting: for `CCCCCCCCc1ccc(OCC(=O)c2nccs2)cc1` [Compound T, 2-(4-Octylphenoxy)-1-(thiazol-2-yl)ethanone] the value was 67%.

Another test concerns the target T3, human GV sPLA2 (Homo sapiens, UniProt P39877).
T3 sequence (P39877 21-138): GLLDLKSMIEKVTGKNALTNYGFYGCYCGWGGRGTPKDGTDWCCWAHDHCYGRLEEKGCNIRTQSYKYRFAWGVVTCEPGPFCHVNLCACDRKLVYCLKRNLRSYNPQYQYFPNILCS
Briefly: In vitro mixed micelle assay, GV sPLA2. It is filed as biochemical. The conditions noted are these: Tables 2 and 4. The protocol:
as §1
Turning to `CCCCCCCCc1ccc(OCC(=O)c2nc(C(=O)OC)cs2)cc1` [Compound A, Methyl 2-(2-(4-octylphenoxy)acetyl)thiazole-4-carboxylate], the “GV sPLA2 % Inhibition” value was found to be 41.1%.

Staying with this test, now noted: mixed micelles; 0.091 mole fraction of inhibitor; Table 6; read-out: GV sPLA2 % Inhib.
As for `CCCCCCCCCCCCOCC(=O)c1nc(CC(=O)OCC)cs1` [Compound X, Ethyl 2-(2-(2-(dodecyloxy)acetyl)thiazol-4-yl)acetate], the inhibition at 0.091 mole fraction is 55%.
Regarding `O=C(COc1ccccc1)c1nccs1` [Compound D, 2-Phenoxy-1-(thiazol-2-yl)ethanone], the inhibition at 0.091 mole fraction was found to be 0%.
Regarding `CCCCCCCCCCCCOCC(=O)c1nc(C(=O)OCC)cs1` [Compound W, Ethyl 2-(2-(dodecyloxy)acetyl)thiazole-4-carboxylate], the inhibition at 0.091 mole fraction amounted to 48%.
Same read-out and setting: for `CCCCCCCCc1ccc(OCC(=O)c2nc(C(=O)OC)cs2)cc1` [Compound A, Methyl 2-(2-(4-octylphenoxy)acetyl)thiazole-4-carboxylate] the value was 41%; for `CCCCCCCCc1ccc(OCC(=O)c2nc(CC(=O)OCC)cs2)cc1` [Compound Y, Ethyl 2-(2-(2-(4-octylphenoxy)acetyl)thiazol-4-yl)acetate], 50%.
Same read-out and setting: for `O=C(COc1ccc(F)cc1)c1nccs1` [Compound C, 2-(4-Fluorophenoxy)-1-(thiazol-2-yl)ethanone] the value was 4%.
With `O=C(COc1ccc(-c2ccccc2)cc1)c1nccs1` [Compound B, 2-(Biphenyl-4-yloxy)-1-(thiazol-2-yl)ethanone], the inhibition at 0.091 mole fraction was 41%.
On to `CCCCCCCCc1ccc(OCC(=O)c2nccs2)cc1` [Compound T, 2-(4-Octylphenoxy)-1-(thiazol-2-yl)ethanone], for which the inhibition at 0.091 mole fraction was 46%.
